Measured values taken from US10370376B2, “Amorphous substance of Idelalisib and preparation method therefor” (Alnova Pharmaceuticals, Ltd., priority 2015, dated 2019).
Values after ≈ are worked out from the molar mass of the structure shown.

Experiments:
Format in all cases: physicochemical
[1] = Accelerated stability test of the amorphous Idelalisib (HPLC and XRPD); details: for Crystalline (XRPD) / Relevant substances (Total impurities %): Temperature 40° C. ± 2° C., Humidity 75% ± 5%
Experimental: Experiment conditions: temperature 40° C.±2° C., humidity 75%±5% The substance was detected by HPLC.

[2] = Determination of apparent solubility (saturation solubility by HPLC) in diluents of different pH; details: for solubility at 12 h: 37 °C, thermodynamic from solid; for solubility at 12 h / Apparent solubility: shaken 12 hours, average of 3; for Apparent solubility: 37° C.
Experimental: The crystalline Idelalisib, Form I, was prepared according to the method of Example 1 of U.S. Pat. No. 8,865,730.
Determination of apparent solubility: weigh a certain amount of the sample into a 1.8 mL of centrifuge tube, add 1 mL of the specified pH diluent, cap tightly. Each solution was prepared with 3 replicates (the amount of the added sample must be much larger than of which can be formed a saturated solution at different pH, details were shown in Table 1), and then 1 mL of the designated pH diluent was added. Then the centrifuge tube containing the test solution was shaken in a water bath at 37° C.±0.5° C. for 12 hours, let Stand in an oven at 37° C. for 2 hours. The upper lay was filtered through a […] microporous membrane. Pipette 200 uL of the filtrated solution into a vial containing 200 uL of acetonitrile, shaken to mix. Label it as test solution. Inject 2 uL of the test solution to HPLC system, record the peak area of main peak. Inject the reference standard solution following the same procedure as the test solution, record the peak area of the main peak of reference standard. According to the main peak area of the test solution and the reference solution, the concentration of the reference solution and the concentration of the test solution are calculated by external standard method. Then the saturation solubility will be obtained by multiplying concentration by the dilution factor of 2. The final result of saturation solubility is the average result of three parallel test samples.
Preparation of reference standard solution: accurately weight about 25 mg of Idelalisib (Form I) into a 25 mL of volumetric flask, dissolve and dilute to the volume with diluent (acetonitrile:water=1:1). The concentration of the reference standard is about 1 mg/mL.
Preparation of Diluents of Different pH:
(1) pH=1.0 diluent: Add 9 mL of concentrated HCl to a 1000 mL of volumetric flask, diluted to the volume with water.
(2) pH=2.0 diluent: Solution A: Transfer 16.6 mL of phosphoric acid to a 100 mL volumetric flask, dilute to the volume with water, shake to mix. Solution B: Weigh and transfer 71.63 g of […] to a 1000 mL of volumetric flask, dilute to the volume with water, dissolve and mix well. Mix 72.5 mL of solution A and 27.5 mL of solution B.
(3) pH=3.0 diluent: transfer 50 mL of glacial acetic acid to a 1000 mL of volumetric flask, add 800 mL of water, adjust pH to 3.0 with lithium hydroxide, then diluted to the volume with water.
(4) pH=4.0 diluent: weigh and transfer 7.7 g of ammonium acetate, dissolve with 50 mL of water, add 6 mL of glacial acetic acid, then diluted to 100 mL with water.
(5) pH=5.6 diluent: Phthalate buffer (pH 5.6): Transfer 10 g of potassium hydrogen phthalate, add 900 mL of water, stir to dissolve, adjust pH to 5.6 with sodium hydroxide solution (or diluted hydrochloric acid if necessary) then diluted to the volume with water.
(6) pH=6.8 diluent: mix 250 mL of 0.2 mol/L potassium dihydrogen phosphate solution and 118 mL of 0.2 mol/L sodium hydroxide solution, diluted to 1000 mL with water, shaken to mix.
(7) pH=7.4 diluent: transfer 1.36 g of potassium dihydrogen phosphate, add 79 mL of 0.1 mol/L sodium hydroxide solution, diluted to 200 mL with water.

[3] = as above; details: pH 4.5 diluent, 37° C., shaken 12 hours, average of 3
[4] = Impact factor test of the amorphous Idelalisib (high temperature, high humidity; HPLC and XRPD)
[5] = accelerated test conditions after 6 months
[6] = high temperature, high humidity after 10 days

Structure (SMILES): CC[C@H](Nc1ncnc2[nH]cnc12)c1nc2cccc(F)c2c(=O)n1-c1ccccc1 [amorphous Idelalisib, 5-fluoro-3-phenyl-2-[(1S)-1-(9H-purin-6-ylamino)propyl]-4(3H)-quinazolinone]
- Crystalline (XRPD) ([1]; 0 month): There is no peak of crystalline Idelalisib
- Relevant substances (Total impurities %) ([1]; 0 month): 0.12%
- Crystalline (XRPD) ([1]; 1 month): There is no peak of crystalline Idelalisib
- Relevant substances (Total impurities %) ([1]; 1 month): 0.14%
- Crystalline (XRPD) ([1]; 2 months): There is no peak of crystalline Idelalisib
- Relevant substances (Total impurities %) ([1]; 2 months): 0.15%
- Crystalline (XRPD) ([1]; 3 months): There is no peak of crystalline Idelalisib
- Relevant substances (Total impurities %) ([1]; 3 months): 0.16%
- Crystalline (XRPD) ([1]; 6 months): There is no peak of crystalline Idelalisib
- Relevant substances (Total impurities %) ([1]; 6 months): 0.19%
- Changes in the relevant substances [1, 5]: no significant changes
- Crystallization of Idelalisib [1, 5]: no crystallization of Idelalisib was observed
- Apparent solubility compared with that of the Form I ([2]; at each pH (1.0 to 7.4)): significantly higher
- solubility at 12 h ([2]; pH 1.0 diluent (dilute HCl), pH 1, simulated gastric fluid, pH 1.0 diluent): 52700 µg/mL (≈ 127000 µM)
- Apparent solubility ([2]; pH 2.0 diluent): 7037.94 µg/mL
- Apparent solubility ([2]; pH 3.0 diluent): 1622.95 µg/mL
- solubility at 12 h ([2]; pH 5.6 diluent (phthalate buffer), pH 5.6, aqueous buffer, pH 5.6 diluent): 75.8 µg/mL (≈ 182 µM)
- solubility at 12 h ([2]; pH 6.8 diluent (phosphate buffer), pH 6.8, aqueous buffer, pH 6.8 diluent): 75.3 µg/mL (≈ 181 µM)
- solubility at 12 h ([2]; pH 7.4 diluent (phosphate buffer), pH 7.4, aqueous buffer, pH 7.4 diluent): 74.3 µg/mL (≈ 179 µM)
- Apparent solubility [3]: 694.19 µg/mL
- Crystalline (XRPD) ([4]; 0 day): There is no peak of crystalline Idelalisib
- Relevant substances (Total impurities %) ([4]; 0 day): 0.12%
- Relevant substances (Total impurities %) ([4]; 5 days, Humidity 75% ± 5%): 0.14%
- Relevant substances (Total impurities %) ([4]; 5 days, Humidity 90% ± 5%): 0.16%
- Relevant substances (Total impurities %) ([4]; 5 days, Temperature 40° C. ± 2° C.): 0.13%
- Relevant substances (Total impurities %) ([4]; 5 days, Temperature 60° C. ± 2° C.): 0.14%
- Crystalline (XRPD) ([4]; 5 days, all four conditions (40° C., 60° C., humidity 75%, 90%)): There is no peak of crystalline Idelalisib
- Relevant substances (Total impurities %) ([4]; 10 days, Humidity 75% ± 5%): 0.14%
- Relevant substances (Total impurities %) ([4]; 10 days, Humidity 90% ± 5%): 0.16%
- Relevant substances (Total impurities %) ([4]; 10 days, Temperature 40° C. ± 2° C.): 0.14%
- Relevant substances (Total impurities %) ([4]; 10 days, Temperature 60° C. ± 2° C.): 0.16%
- Crystalline (XRPD) ([4]; 10 days, all four conditions (40° C., 60° C., humidity 75%, 90%)): There is no peak of crystalline Idelalisib
- Changes in the relevant substances [4, 6]: no significant changes
- Crystallization of Idelalisib [4, 6]: no crystallization of Idelalisib was observed

Structure (SMILES): CC[C@H](Nc1ncnc2[nH]cnc12)c1nc2cccc(F)c2c(=O)n1-c1ccccc1 [crystalline Idelalisib (Form I), 5-fluoro-3-phenyl-2-[(1S)-1-(9H-purin-6-ylamino)propyl]-4(3H)-quinazolinone, reference compound]
- Apparent solubility ([2]; pH 1.0 diluent): 34580.16 µg/mL
- Apparent solubility ([2]; pH 2.0 diluent): 1756.55 µg/mL
- Apparent solubility ([2]; pH 3.0 diluent): 317.47 µg/mL
- Apparent solubility ([2]; pH 5.6 diluent): 46.91 µg/mL
- Apparent solubility ([2]; pH 6.8 diluent): 47.35 µg/mL
- Apparent solubility ([2]; pH 7.4 diluent): 45.08 µg/mL
- Apparent solubility [3]: 147.02 µg/mL
